Experimental data reported in paper PMC5987162 (Biochimica et biophysica acta, 2018).
Read-outs that look alike come from different tables or passages of the source.

Key:
[1] = system: hippocampal transcriptome; experiment: RNA-Seq of hippocampus after acute THC versus vehicle; type: in vivo, mouse; details: for number of transcripts differentially expressed in the HIPP: 2 hours, 5% FDR
spatial working memory = details: male C57 mice, 3 mg/kg, tested 30 minutes later; cited from earlier work
[2] = system: CD1 female mouse brain lipidome; experiment: Targeted brain lipidomics; type: in vivo; details: for magnitude class of change in PGE2 and PGF2α, HIPP: p < 0.05
novel object recognition = details: 3 mg/kg THC, 24 hours after dosing; cited from earlier work
gene expression = details: microarray, out of 24,500 possible genes, acute THC; cited from earlier work
[3] = PND 35, 2 hours after 3 mg/kg THC i.p.
[4] = PND 50, 2 hours after 3 mg/kg THC i.p.
[5] = adult, 2 hours after 3 mg/kg THC i.p.
[6] = adult, THC vs vehicle, significant

With (±)-11-nor-9-carboxyTHC as the compound, how does the “rank of HIPP levels relative to other brain regions” value [3] read?
Its value is “highest”.

With 11-OH-THC as the compound, how does the “rank of HIPP levels relative to other brain regions” value [4] read?
The value was “highest”.

What about the “rank of HIPP levels relative to other brain regions” value [5] of the same compound?
Its value is 5th.

Which “effect on FKBP5 message” value ([1]; HIPP of both age groups, 3 mg/kg, larger magnitude in adult) does the source give for `CCCCCc1cc(O)c2c(c1)OC(C)(C)[C@@H]1CCC(C)=C[C@@H]21` [THC, Δ^9-tetrahydrocannabinol] here?
The value was “upregulated”.

What about the “effect on Cdkn1a transcript” value ([1]; HIPP of mice from both age groups) of the same compound?
The value was “upregulated”.

What about the “number of genes affected in the same direction regardless of age” value ([1]; HIPP, PND 35 and adult) of the same compound?
Its value is 31.

What about the “number of shared transcripts significantly downregulated” value ([1]; HIPP, PND 35 and adult) of the same compound?
Its value is 11.

What about the “number of transcripts downregulated in the HIPP” value ([1]; PND 35) of the same compound?
Its value is 48.

And the “number of transcripts upregulated in the HIPP” value ([1]; PND 35)?
Its value is 41.

And the “number of transcripts differentially expressed in the HIPP” value ([1]; PND 35, 3 mg/kg THC)?
Its value is 89.

What about the “log2 fold change of Plekhf1 (largest upregulation)” value ([1]; PND 35 HIPP) of the same compound?
Its value is 0.84.

And the “log2 fold change of kdr (most robust downregulation)” value ([1]; PND 35 HIPP)?
The value was −0.73.

What about the “number of transcript changes unique to this age group” value ([1]; PND 35 HIPP) of the same compound?
Its value is 58.

What about the “number of uniquely changed transcripts downregulated” value ([1]; PND 35 HIPP) of the same compound?
Its value is 37.

What about the “number of decreases in transcript expression in the HIPP” value ([1]; adult) of the same compound?
Its value is 80.

What about the “number of increases in transcript expression in the HIPP” value ([1]; adult) of the same compound?
The value was 109.

And the “log2 fold change of Plekhf1 (largest upregulation)” value ([1]; adult HIPP)?
The value was 1.36.

And the “log2 fold change of cldn5 (most robust downregulation)” value ([1]; adult HIPP)?
The value was −0.80.

What about the “number of transcript changes unique to this age group” value ([1]; adult HIPP) of the same compound?
Its value is 158.

And the “number of unique transcript changes that were decreases” value ([1]; adult HIPP)?
The value was 69.

What about the “number of unique transcript changes that were increases” value ([1]; adult HIPP) of the same compound?
Its value is 89.

And the “effect on mRNA encoding the receptor for VEGF, Kdr” value ([1]; adult and PND 35 HIPP)?
The value was “significantly lowered”.

What about the “number of transcripts differentially expressed in the HIPP” value ([1]; adult, 3 mg/kg THC) of the same compound?
The value was 189.

What about the “effect on spatial working memory in the Morris water maze” value (spatial working memory) of the same compound?
The value was “significantly disrupted spatial working memory”.

What about the “change in 2-AG in HYP” value ([2]; PND 35) of the same compound?
Its value is “decrease”.

And the “change in N-oleoyl glycine in HYP” value ([2]; PND 35)?
Its value is “increase”.

And the “effect on AEA levels” value ([2]; PND 35)?
Its value is “unaffected”.

What about the “number of brain areas with reduced 2-AG levels” value ([2]; PND 35) of the same compound?
The value was 2.

What about the “number of decreases in lipid concentration, all 8 brain areas” value ([2]; PND 35) of the same compound?
Its value is 10.

And the “number of increases in lipid concentration, all 8 brain areas” value ([2]; PND 35)?
The value was 23.

What about the “number of lipids decreased in HIPP” value ([2]; PND 35) of the same compound?
The value was 1.

And the “number of lipids increased in HIPP” value ([2]; PND 35)?
Its value is 6.

And the “magnitude of change of PGE2 in the HIPP (THC mean divided by vehicle mean)” value ([2]; PND 35, 3 mg/kg i.p., 2 hours)?
Its value is 1.13.

What about the “magnitude class of change in PGE2 and PGF2α, HIPP” value ([2]; PND 35, THC vs vehicle) of the same compound?
Its value is 1 up arrow.

And the “magnitude class of change in A-Taur, THAL” value ([2]; PND 35, THC vs vehicle, significant)?
The value was 1 up arrow.

What about the “number of significant changes in lipid concentrations across all 8 brain areas” value ([2]; PND 35, out of 656 possible changes) of the same compound?
The value was 33.

What about the “average level of PGE2 in the HIPP” value ([2]; PND 35 THC mice, 3 mg/kg i.p., 2 hours) of the same compound?
Its value is 6.68×10^−10 moles per gram.

What about the “change in levels of PGE2 and PGF2α in the HIPP” value (from here on “change in levels”) ([2]; PND 35 mouse) of the same compound?
The value was “increase”.

And the “change in AEA and its structural analogs the NAEs in STR” value ([2]; PND 50)?
The value was “significantly increased”.

And the “change in PGF2α in HYP (only change in that region)” value ([2]; PND 50)?
Its value is “increase”.

And the “number of brain regions with reduced 2-AG levels” value ([2]; PND 50)?
The value was 4.

What about the “number of brain regions with reduced AEA levels” value ([2]; PND 50) of the same compound?
Its value is 2.

What about the “number of decreases in lipid concentration, all 8 brain areas” value ([2]; PND 50) of the same compound?
The value was 28.

And the “number of increases in lipid concentration, all 8 brain areas” value ([2]; PND 50)?
The value was 30.

And the “number of lipids decreased in CER” value ([2]; PND 50)?
The value was 8.

And the “number of lipids increased in CER” value ([2]; PND 50)?
Its value is 5.

And the “number of lipids significantly modified, all 8 brain areas” value ([2]; PND 50)?
Its value is 58.

What about the “change in levels” value ([2]; PND 50 mouse) of the same compound?
Its value is “no change”.

And the “change in NAEs in all brain areas except the STR and CTX” value ([2]; adult)?
Its value is “significantly decreased”.

And the “change in levels” value ([2]; adult)?
Its value is “decrease”.

What about the “number of brain regions with reduced 2-AG levels” value ([2]; adult) of the same compound?
The value was 4.

What about the “number of brain regions with reduced AEA levels” value ([2]; adult) of the same compound?
The value was 6.

And the “number of changes in lipid levels in CER (all decreases)” value ([2]; adult)?
The value was 14.

And the “number of decreases in lipid concentration, all 8 brain regions” value ([2]; adult)?
The value was 99.

What about the “number of increases in lipid concentration, all 8 brain regions” value ([2]; adult) of the same compound?
Its value is 17.

And the “number of lipids affected in STR” value ([2]; adult)?
Its value is 3.

What about the “number of lipids altered in STEM” value ([2]; adult) of the same compound?
The value was 28.

What about the “number of lipids changing in concentration across the 8 brain regions” value ([2]; adult) of the same compound?
The value was 116.

And the “number of lipids decreased in STEM” value ([2]; adult)?
Its value is 24.

And the “number of lipids decreased in STR” value ([2]; adult)?
The value was 2.

And the “number of lipids increased in STEM” value ([2]; adult)?
Its value is 4.

And the “number of lipids increased in STR” value ([2]; adult)?
Its value is 1.

And the “mean level of AEA in the HIPP” value ([2]; adult THC mice, 3 mg/kg i.p., 2 hours)?
Its value is 4.76×10^−11 moles per gram.

And the “AEA in the HIPP, THC mean divided by vehicle mean” value ([2]; adult, 3 mg/kg i.p., 2 hours)?
The value was 0.87.

And the “fold decrease of AEA in the HIPP (reciprocal of THC/vehicle)” value ([2]; adult, 3 mg/kg i.p., 2 hours)?
Its value is 1.15.

What about the “magnitude class of change in 2-OG, MID” value ([2]; adult, THC vs vehicle) of the same compound?
Its value is 2 down arrows.

What about the “magnitude class of change in PGE2 and PGF2α, HIPP” value ([2]; adult, THC vs vehicle) of the same compound?
Its value is 1 down arrow.

And the “magnitude class of change in AEA, THAL” value [2, 6]?
Its value is 1 down arrow.

And the “magnitude class of change in SEA, THAL” value [2, 6]?
The value was 3 down arrows.

What about the “magnitude class of change in A-Taur, THAL” value ([2]; adult, THC vs vehicle, trending (p < 0.1)) of the same compound?
The value was 1 up arrow.

And the “magnitude class of change in 2-AG, MID” value ([2]; all 3 age groups, THC vs vehicle)?
Its value is 1 down arrow.

And the “effect on novel object recognition” value (novel object recognition)?
Its value is “impaired”.

And the “brain area with highest levels” value [3]?
The value was “HIPP”.

What about the “brain area with highest levels” value [4] of the same compound?
The value was “HIPP”.

And the “brain area with highest levels” value [5]?
The value was “HIPP”.

And the “number of genes with altered expression” value (gene expression)?
Its value is 28.
